The results in this text go back to patent US9403806B1, “Cognition enhancing compounds and compositions, methods of making, and methods of treating” (NeuroSolis, Inc., priority 2010, dated 2016).

Data set [1] deals with T1, rat M3 receptors (Rattus norvegicus, UniProt P08483).
T1 construct: host or cells: CHO (M3-CHO)
As to the kind of experiment: PI turnover (inositol phosphate production) in M3-CHO cells. Conditions: mean Smax relative to carbachol (100.0); CHO cells expressing rat M3. The class given is cell-based. The procedure:
The medium was changed to 70 μL/well of inositol-free DMEM containing 2 mM glutamine, 10% FBS and 10 μCi/ml of [3H]-inositol (PE:cat # NET114A250UC), incubated overnight as above, then 100 μL of a solution of the test compound in HBSS containing 10 mM LiCl and 20 mM HEPES, pH 7.4 was added, incubation was continued for 60 min under the above conditions, and the test was stopped by removing the test compound and replacing with 100 μL of 50 mM formic acid in water at 4° C. […] The compounds in Table 1 are all dihydropyrimidine-oxadiazoles which vary only at the oxadiazole side chain.

Data set [2] deals with CD-1 Mice. As to the kind of experiment: Novel object recognition assay. It is filed as in vivo. To be noted: oral dose 3.0 mg/kg, 1 hr inter-trial interval. The text has this:
Object recognition memory—judgment of the prior occurrence of objects—is a key part of human memory, and is commonly impaired in neurodegenerative diseases, such as Alzheimer's disease (Winters B D et al Neurosci Behav Rev 32 (2008) 1055-70). This may be modeled in laboratory rodents using delayed spontaneous novel object recognition, which tests the ability of an animal to recognize an object it has previously been exposed to, after a delay. Drugs may be evaluated for their ability to improve the animal's ability to remember, recall or recognize objects in this model.
CD-1 Mice (males, 7-8 weeks old) were fasted for 16 hrs and orally dosed with compounds of interest 30 min before experiments began. Throughout those 30 min, animals were left in their home cages except during a 1 min handling habituation session at 10 min post-dosing. All handling and experiments were carried out under low, indirect light during the hours between 8 am and 3 pm. Compound 122a and donepezil were dissolved in PBS. […] Mouse activity was recorded using a digital video camera and evaluated after the trial. The time each mouse spent with its nose in contact with either object (investigation) was recorded for each minute of T2, and a Discrimination Score (D Score) was calculated using the following formula once the animal completed a total of 1 min of investigation. […]

Data set [3] concerns pooled male human liver microsomes. Kind of data set: Metabolism in human liver microsomes, Example 45. The class given is in vitro ADME. In short, it runs like this:
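Pooled male human liver microsomes sampled every 2 hours, reactions stopped with 1% formic acid. After centrifugation and ultrafiltration, remaining parent compound quantified by reverse-phase C8 LC/MS/MS with electrospray and MRM transitions against a standard calibration curve.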
For orientation: Microsomes from liver hold many membrane-bound enzymes, among them those of drug oxidation.

The test system of data set [4] is hippocampal inositol phosphate. Kind of data set: In vivo tissue inositol phosphate signaling pathway activation, hippocampus. Also noted: species or system Long Evans Hooded rats. Conditions: normal rats, dose-dependent 0.03 mg/kg to at least 3 mg/kg (FIG. 10A). The method, then: Experimental compounds or drug substances were administered using standard techniques to Long Evans Hooded rats weighing 225 to 350 grams, and which had been pretreated with a subcutaneous injection of lithium chloride at a suitable dose between 3 and 10 mmoles per kg. At suitable times the animals were briefly anesthetized using 5% isoflurane and euthanized by decapitation. The brains and submaxillary salivary glands were rapidly dissected out, and the hippocampuses were dissected from the brains. The dissected tissues were homogenized in a suitable volume of ice-cold phosphate-buffered saline containing 10 mM lithium chloride, pH7.4, using a tissue homogenizer, and used immediately or frozen in aliquots at −80 deg C. for future use. The concentration of inositol-1-phosphate was determined in the homogenates using the IPOne TR-FRET assay (CisBio cat no 621PAPEB), following the manufacturer's instruction

For data set [5], the system named is CD-I mice. Kind of data set: Apomorphine induced climbing model of psychosis. The class given is in vivo. The method, then: As described in Costall et. al. European Journal of Pharmacology 1978, 50, 39. individual CD-I mice, 1-2 months old, were placed in a cylindrical wire mesh cage (13.2 cm high×13.2 cm diameter) constructed of steel wire 1 mm thick spaced at 1.2 cm^2. Cylinders were placed in a standard OptiMICE mouse cage (29×32×9×29 cm and 14 cm high) with adequate wood chip bedding provided. Observations of climbing (defined as 3 or more paws of the ground) were carried out every 5 minutes at a duration of 1 minute for […]. Animals were injected subcutaneously under isoflurane anesthesia with test compounds, reference compounds, which included clozapine, haloperidol, olanzapine and xanomeline, or PBS as a control. This was followed 5 minutes later by 2 mg/kg apomorphine hydrochloride. All drugs were dissolved in PBS or a mixture of (by volume) 96% PBS and 4% hydroxypropyl-beta-cyclodextrin, and dosed at a rate of 5 ml per kilogram of body weight. Following injections, animals were replaced in the mesh cages and observed for climbing (defined as 3 or more paws off the ground) every 5 minutes for 1 minute for 60 minutes after dosing.

The target in data set [6] is T2, human muscarinic M1 receptors (Homo sapiens, UniProt P11229).
T2 construct: host or cells: A9L cells
T2 sequence (P11229 1-460): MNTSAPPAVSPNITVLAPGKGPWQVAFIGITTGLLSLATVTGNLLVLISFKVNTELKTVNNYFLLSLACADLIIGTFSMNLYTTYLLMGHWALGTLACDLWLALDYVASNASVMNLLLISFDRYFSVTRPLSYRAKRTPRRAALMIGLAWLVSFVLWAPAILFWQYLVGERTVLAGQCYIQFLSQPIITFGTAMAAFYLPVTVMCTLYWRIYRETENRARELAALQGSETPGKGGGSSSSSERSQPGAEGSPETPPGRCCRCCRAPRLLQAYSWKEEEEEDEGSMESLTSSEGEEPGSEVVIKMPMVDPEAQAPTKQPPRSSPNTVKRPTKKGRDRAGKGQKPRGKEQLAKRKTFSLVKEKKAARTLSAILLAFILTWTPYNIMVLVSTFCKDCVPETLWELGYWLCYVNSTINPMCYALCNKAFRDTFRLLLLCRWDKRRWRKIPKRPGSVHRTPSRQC
Kind of data set: IP production in A9L cells with human M1 receptors (IPOne TR-FRET), Example 28. The class given is cell-based. In short, it runs like this:
(§1)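 A9L cells transfected with human M1 or M3 receptors, exposed to compound in medium with 10 mM LiCl and 10 mM HEPES (pH 7.4) for 60 min at 37 °C. IP in lysates measured by IPOne TR-FRET; efficacy expressed relative to full agonist (100%).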

Data set [7] addresses T3, human muscarinic M3 receptors (Homo sapiens, UniProt P20309).
T3 construct: host or cells: A9L cells
Kind of data set: IP production in A9L cells with human M3 receptors (IPOne TR-FRET), Example 28. The class given is cell-based. In short, it runs like this:
as §1
(Time-resolved FRET reads energy transfer from a long-lived donor to a nearby acceptor.)

For data set [8], the target named is T4, human FMO1 Supersomes (Homo sapiens, UniProt Q01740).
T4 construct: purchased BD Biosciences 456241
T4 sequence (Q01740 1-532): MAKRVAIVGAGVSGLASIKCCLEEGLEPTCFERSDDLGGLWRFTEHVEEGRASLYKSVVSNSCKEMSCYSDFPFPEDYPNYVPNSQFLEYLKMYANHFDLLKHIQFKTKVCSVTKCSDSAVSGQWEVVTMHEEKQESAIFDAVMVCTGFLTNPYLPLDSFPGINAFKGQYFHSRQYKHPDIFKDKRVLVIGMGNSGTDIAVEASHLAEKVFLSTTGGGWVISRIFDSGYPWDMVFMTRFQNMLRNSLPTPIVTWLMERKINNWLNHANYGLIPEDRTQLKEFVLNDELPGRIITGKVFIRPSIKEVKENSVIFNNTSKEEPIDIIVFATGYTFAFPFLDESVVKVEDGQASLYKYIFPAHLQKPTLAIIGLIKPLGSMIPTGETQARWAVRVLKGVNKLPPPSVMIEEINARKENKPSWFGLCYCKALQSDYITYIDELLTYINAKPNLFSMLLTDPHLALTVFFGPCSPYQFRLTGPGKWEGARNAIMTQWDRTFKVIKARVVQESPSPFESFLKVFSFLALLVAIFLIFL
As to the kind of experiment: Metabolism by flavin monoxygenase 1 (FMO1) Supersomes. Conditions: after 6 hours (FIG. 2). It is filed as in vitro ADME. The method, then:
[…] Aliquots were removed every 10 minutes, and 1% formic acid was added to halt the reaction. Samples were centrifuged, filtered through 0.2 micron spinfilter and the amount of each compound in the supernatants was quantitated using LC/MS/MS.

The test system of data set [9] is anesthetized normal rats. Kind of data set: In vivo measurement of salivation. To be noted: anesthetized normal rats, dose-dependent between about 0.1 mg/kg and 1 mg/kg (FIG. 11). On the set-up: species or system Long Evans Hooded rats. The procedure:
Suitable doses of test compounds or drug substances were administered using standard techniques to Long Evans Hooded rats weighing 225 to 350 grams, or CD-1 mice weighing 30 to 50 grams, which had been anesthetized using 2-3.5%% of isoflurane in oxygen. The animals were placed slightly head-down on an inclined, heated ramp. Rectal temperature was monitored using a thermocouple and the temperature of the heating pad was adjusted manually to maintain normal body temperature. Saliva was collected from the mouth by absorption onto pre-weighed slips of filter paper. The filter paper was changed periodically and the amount of saliva was measured by weighing the filter paper slips

The test system of data set [10] is pooled male human liver microsomes. Kind of data set: Metabolism by human liver microsomes, Example 33. To be noted: 6 hours incubation (FIGS. 4A, 4B). The class given is in vitro ADME. The procedure:
Compounds were incubated with pooled male human liver microsomes (BD Biosciences, #452172) and an NADP-regenerating system in a phosphate buffer (pH 7.4) for a total of 6 hours. Aliquots were removed every 2 hours, and 1% formic acid was added to halt the reaction. Samples were centrifuged, filtered through 0.2 micron spinfilter and the amount of each compound in the supernatants was quantitated using LC/MS/MS.

Data set [11] relates to A-beta 1-40 and A-beta 1-42. Kind of data set: A-beta in hippocampal microdialysate of transgenic mice. The class given is in vivo, Tg-2576 transgenic mice. Conditions: Tg-2576 mice, single dose (FIG. 14). From the text:
These mice have high concentrations of A-beta in their brain tissue, thought to be the cause of neuron death in Alzheimer's disease, and accumulate amyloid plaques, recapitulating one of the hallmark pathological features of Alzheimer's disease.

The nature of data set [12]: in vitro. To be noted: PAMPA.
[13] abbreviates: mice, sc, apomorphine 2 mg/kg (FIG. 1).
Where [14] appears, read: percentage of maximal stimulation by carbachol.
Where [15] appears, read: potency relative to carbachol at its EC50, semi-quantitative.

Counter-ions that a name gives are not always drawn.

T3 sequence (P20309 whole entry): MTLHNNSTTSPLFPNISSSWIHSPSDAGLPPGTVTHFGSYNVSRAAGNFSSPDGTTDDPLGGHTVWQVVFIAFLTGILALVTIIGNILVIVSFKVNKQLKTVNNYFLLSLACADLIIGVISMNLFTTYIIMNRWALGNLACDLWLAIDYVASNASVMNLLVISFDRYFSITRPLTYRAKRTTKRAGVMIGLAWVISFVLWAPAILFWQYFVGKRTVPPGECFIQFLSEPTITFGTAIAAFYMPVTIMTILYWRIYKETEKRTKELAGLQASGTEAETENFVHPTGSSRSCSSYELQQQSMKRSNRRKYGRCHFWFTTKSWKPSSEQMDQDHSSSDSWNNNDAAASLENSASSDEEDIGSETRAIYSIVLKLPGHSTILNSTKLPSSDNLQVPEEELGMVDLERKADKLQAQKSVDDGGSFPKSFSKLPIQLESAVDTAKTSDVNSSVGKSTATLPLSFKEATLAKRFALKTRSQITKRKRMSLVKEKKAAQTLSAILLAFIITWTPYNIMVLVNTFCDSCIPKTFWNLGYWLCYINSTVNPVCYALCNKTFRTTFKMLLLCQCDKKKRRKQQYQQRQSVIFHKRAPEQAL
T1 sequence (P08483 whole entry): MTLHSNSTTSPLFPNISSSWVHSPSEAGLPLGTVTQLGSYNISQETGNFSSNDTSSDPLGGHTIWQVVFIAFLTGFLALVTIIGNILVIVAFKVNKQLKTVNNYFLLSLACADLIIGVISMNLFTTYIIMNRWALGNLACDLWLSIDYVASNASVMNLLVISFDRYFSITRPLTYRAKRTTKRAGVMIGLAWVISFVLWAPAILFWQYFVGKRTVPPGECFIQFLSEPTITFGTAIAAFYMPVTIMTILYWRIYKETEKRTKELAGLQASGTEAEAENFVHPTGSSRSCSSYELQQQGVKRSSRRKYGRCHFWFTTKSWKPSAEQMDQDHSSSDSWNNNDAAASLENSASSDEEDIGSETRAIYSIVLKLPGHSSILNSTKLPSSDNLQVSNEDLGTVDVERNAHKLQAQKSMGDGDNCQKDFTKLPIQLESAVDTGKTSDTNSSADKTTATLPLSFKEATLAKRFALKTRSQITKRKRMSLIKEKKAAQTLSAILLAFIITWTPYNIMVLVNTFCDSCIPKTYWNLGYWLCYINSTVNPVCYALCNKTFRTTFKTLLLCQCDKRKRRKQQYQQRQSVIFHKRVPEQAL

For `[2H]C([2H])([2H])c1noc(C2CN=CNC2)n1` (centres unmarked) [Compound 4c, 3-(d3-methyl)-5-(1,4,5,6-tetrahydropyrimidin-5-yl)-1,2,4-oxadiazole hydrochloride], in data set [1], the “M3/CHO PI turnover Relative Mean Smax” value turned out to be 92.6.

With `COc1cc2c(cc1OC)C(=O)C(CC1CCN(Cc3ccccc3)CC1)C2` (centres unmarked) [Donepezil], in data set [2], the “Mean D Score” value is on record as 70.35%.

Turning to `CCCCCCOc1nsnc1C1=CCCN(C)C1` [Xanomeline, reference compound], in data set [3], the “Loss at 6 hrs (%)” value came to 100%. The “Mean D Score” value in data set [2] amounted to 72.05%.

The term Papp denotes the rate of passage across a membrane or cell layer, normalised by area and donor concentration. `Cc1noc(C2CCCNC2)n1` (racemic) [Compound 3, 3-Methyl-5-(piperidin-3-yl)-1,2,4-oxadiazole]: in data set [4], the “hippocampal IP response” value was “causes an increase in the hippocampal IP response”. Also, the “Climbing Mean” value in [5] (Cmpd 3 0.1 mg/kg + APO 2 mg/kg) was 8.9 s. Further, the “Climbing Mean” value in [5] (Cmpd 3 0.1 mg/kg + APO + N-Methyl Scopolamine 0.3 mg/kg) worked out at 12.3 s. Further, the “Climbing Mean” value in data set [5] (Cmpd 3 0.1 mg/kg + APO + scopolamine 0.3 mg/kg) came to 47.0 s. In addition, in data set [5] (setting [13]), the “activity in the apomorphine induced climbing model” value was “highly active and highly potent”; the “potency in inhibiting climbing compared with haloperidol” value was “equipotent to haloperidol”. In data set [6] (setting [14]), the “huM1/A9L Smax” value is given as 108%. Further, the “huM1/A9L ED50 relative to CCh*” value in data set [6] (setting [15]) is recorded as “+ (+ potency 2-10x CCh)”. Moreover, the “huM3/A9L Smax” value in [7] (setting [14]) was found to be 54%. The “huM3/A9L ED50 relative to CCh*” value in data set [7] (setting [15]) was “+/− (+/− potency 0.5-2x CCh)”. Also, the “extent of metabolism in FMO Supersomes (in words)” value in data set [8] is listed as “less than half metabolized”. For the same compound, the salivation entry in data set [9] is “causes salivation”. Besides, the “metabolism in human liver microsomes (in words)” value in data set [10] was “metabolized significantly less in human liver microsomes than in rat liver microsomes”. For the same compound, in data set [11], the “reduction of the concentration of A-beta 1-40 in hippocampal microdialysate” value is on record as “approximately 40%” and the “reduction of the concentration of A-beta 1-42 in hippocampal microdialysate” value is “approximately 40%”. In addition, in data set [12], the Papp came out at 25.6 nm/s.
